What was measured:
[1] = Stability of Tc-99m labeled compound, labeling purity by HPLC; type: physicochemical; settings: for radiochemical purity: cysteine and VB1, until 4 hours (Table 5)
Procedure: 2 mL of Tc-99m was added dropwise to a lyophilized vial including 0.1 mg of GP-104, 15 μg of SnCl2, and 10 μg of cysteine, the vial was allowed to stand at room temperature for 10 minutes, and the reaction was terminated by adjusting pH to 7 using a NaOH solution. Labeling purity was confirmed to be 93.21% by HPLC (analysis conditions: Luna C18 250×4.6 mm, phosphate buffer:acetonitrile (100:0, 0 to 5 minutes; 80:20, 5 to 10 minutes; 80:20, 17 minutes; 100:0, 17.1 minutes). 100:0. 20 min), 1.0 mL/min, UV=280 nm).
In order to confirm the effect of cysteine addition after the reaction, the following experiment was performed: 0.1 mg of GP-104 was dissolved in water for injection, the pH was adjusted to about 3.5 when 10 μL of SnCl2 (1.5 mg/mL) and 2 mL of Tc-99m were added thereto, and the resulting mixture was allowed to stand at room temperature for 10 minutes. The reaction was terminated by adjusting the pH to 7 using a NaOH solution and 10 μL of cysteine (1.0 mg/mL). Labeling purity was confirmed to be 91.4% using HPLC in the same manner as in Example 2-7.
After 0.1 mg of GP-104 was dissolved in water for injection, pH was adjusted to about 3.5 and the resulting solution was allowed to stand at room temperature for 10 minutes when 10 μL of SnCl2 (1.5 mg/mL), 10 μL of cysteine (1.0 mg/mL) and 2 mL of Tc-99m were added thereto, and the reaction was terminated by adjusting the pH to 7 using a NaOH solution. Labeling purity was confirmed to be 94.84% using HPLC in the same manner as in Example 2-7.
HCl and NaOH was additionally added dropwise to the solution of Example 2-8 to perform a stability evaluation by adjusting the final pH of the solution to acidic (pH 5.5) and basic (pH 8.5) conditions, and labeling purity was confirmed using HPLC in the same manner as in Example 2-7.
HCl and NaOH was additionally added dropwise to the solution of Example 2-9 to perform a stability evaluation by adjusting the final pH of the solution to acidic (pH 5.5) and basic (pH 8.5) conditions, and labeling purity was confirmed using HPLC in the same manner as in Example 2-7.
HCl and NaOH was additionally added dropwise to the solution of Example 2-10 to perform a stability evaluation by adjusting the final pH of the solution to acidic (pH 5.5) and basic (pH 8.5) conditions, and labeling purity was confirmed using HPLC in the same manner as in Example 2-7.
0.1 mg of GP-105 was dissolved in water for injection, the pH was adjusted to about 3.5 when 10 μL of SnCl2 (1.5 mg/mL) and 2 mL of Tc-99m were added thereto, and the resulting mixture was allowed to stand at room temperature for 10 minutes. The reaction was terminated by adjusting the pH to 7 using a NaOH solution and 10 μL of cysteine (1.0 mg/mL). Labeling purity was confirmed to be 98.1% using HPLC in the same manner as in Example 2-7.
HCl and NaOH was additionally added dropwise to the solution of Example 2-12 to perform a stability evaluation by adjusting the final pH of the solution to acidic (pH 5.5) and basic (pH 8.5) conditions, and labeling purity was confirmed using HPLC in the same manner as in Example 2-7.
HCl and NaOH was additionally added dropwise to the solution of Example 2-13 to perform a stability evaluation by adjusting the final pH of the solution to acidic (pH 5.5) and basic (pH 8.5) conditions, and labeling purity was confirmed using HPLC in the same manner as in Example 2-7.
HCl and NaOH was additionally added dropwise to the solution of Example 2-14 to perform a stability evaluation by adjusting the final pH of the solution to acidic (pH 5.5) and basic (pH 8.5) conditions, and labeling purity was confirmed using HPLC in the same manner as in Example 2-7.

[2] = as above; type: physicochemical; settings: Ex 3-3

Question: Which Purity ([1]; 165 nmol cysteine, acidic conditions, after 2 hours (Table 4)) does the source give for `O=C(O)C[C@H](NC(=O)[C@@H]1CCCN(C(=O)CCC2CCNCC2)C1)c1cncc(OCCNC(=O)CN2CCN3CCN(CC(=O)O)CC(=O)[O][99Tc+]([O]C(=O)C3)[O]C(=O)C2)c1` [[Tc-99m]GP-104] here?
Answer: ≤ 90%

Question: What about the Purity ([1]; 165 nmol cysteine, basic conditions, until 2 hours (Table 4)) of the same molecule?
Answer: < 90%

Question: And the Purity ([1]; 165 nmol cysteine, neutral conditions, even after 4 hours (Table 4))?
Answer: ≥ 90%

Question: What about the “purity (HPLC)” value ([1]; Ex 3-3, addition of cysteine after reaction, pH 3, 0 hour) of the same molecule?
Answer: 82.63%

Question: And the “purity (HPLC)” value ([1]; Ex 3-3, addition of cysteine after reaction, pH 3, 1 hour)?
Answer: 70.01%

Question: What about the “purity (HPLC)” value ([1]; Ex 3-3, addition of cysteine after reaction, pH 3, 2 hours) of the same molecule?
Answer: 52.58%

Question: What about the “purity (HPLC)” value ([1]; Ex 3-3, addition of cysteine after reaction, pH 3, 4 hours) of the same molecule?
Answer: 30.38%

Question: And the “purity (HPLC)” value ([1]; Ex 3-3, addition of cysteine after reaction, pH 7, 0 hour)?
Answer: 91.4%

Question: And the “purity (HPLC)” value ([1]; Ex 3-3, addition of cysteine after reaction, pH 7, 1 hour)?
Answer: 91.42%

Question: And the “purity (HPLC)” value ([1]; Ex 3-3, addition of cysteine after reaction, pH 7, 2 hours)?
Answer: 91.1%

Question: And the “purity (HPLC)” value ([1]; Ex 3-3, addition of cysteine after reaction, pH 7, 3 hours)?
Answer: 90.3%

Question: What about the “purity (HPLC)” value ([1]; Ex 3-3, addition of cysteine after reaction, pH 7, 4 hours) of the same molecule?
Answer: 90.19%

Question: And the “purity (HPLC)” value ([1]; Ex 3-3, addition of cysteine before reaction, pH 3, 1 hour)?
Answer: 92.7%

Question: What about the “purity (HPLC)” value ([1]; Ex 3-3, addition of cysteine before reaction, pH 3, 2 hours) of the same molecule?
Answer: 84.17%

Question: What about the “purity (HPLC)” value ([1]; Ex 3-3, addition of cysteine before reaction, pH 3, 3 hours) of the same molecule?
Answer: 76.77%

Question: And the “purity (HPLC)” value ([1]; Ex 3-3, addition of cysteine before reaction, pH 3, 4 hours)?
Answer: 69.34%

Question: And the “purity (HPLC)” value ([1]; Ex 3-3, addition of cysteine before reaction, pH 7, 0 hour)?
Answer: 94.84%

Question: And the “purity (HPLC)” value ([1]; Ex 3-3, addition of cysteine before reaction, pH 7, 1 hour)?
Answer: 94.43%

Question: What about the “purity (HPLC)” value ([1]; Ex 3-3, addition of cysteine before reaction, pH 7, 2 hours) of the same molecule?
Answer: 97.66%

Question: And the “purity (HPLC)” value ([1]; Ex 3-3, addition of cysteine before reaction, pH 7, 4 hours)?
Answer: 97.75%

Question: What about the radiochemical purity ([1]; acidic conditions) of the same molecule?
Answer: ≥ 90%

Question: And the radiochemical purity ([1]; basic conditions)?
Answer: ≥ 80%

Question: What about the radiochemical purity ([1]; pH of 7) of the same molecule?
Answer: ≥ 98%

Question: What about the Purity ([1]; pH of 7 regardless of the timing of cysteine addition, even after 4 hours (text to Table 3)) of the same molecule?
Answer: ≥ 90%

Question: What about the “purity (HPLC)” value ([1]; solution of Example 2-8 (165 nmol cysteine), pH 5.5, 0 hr) of the same molecule?
Answer: 95.26%

Question: What about the “purity (HPLC)” value ([1]; solution of Example 2-8 (165 nmol cysteine), pH 5.5, 2 hr) of the same molecule?
Answer: 91.45%

Question: And the “purity (HPLC)” value ([1]; solution of Example 2-8 (165 nmol cysteine), pH 5.5, 4 hr)?
Answer: 89.28%

Question: And the “purity (HPLC)” value ([1]; solution of Example 2-8 (165 nmol cysteine), pH 7, 0 hr)?
Answer: 95.26%

Question: What about the “purity (HPLC)” value ([1]; solution of Example 2-8 (165 nmol cysteine), pH 7, 2 hr) of the same molecule?
Answer: 91.19%

Question: What about the “purity (HPLC)” value ([1]; solution of Example 2-8 (165 nmol cysteine), pH 7, 4 hr) of the same molecule?
Answer: 91.61%

Question: And the “purity (HPLC)” value ([1]; solution of Example 2-8 (165 nmol cysteine), pH 8.5, 0 hr)?
Answer: 95.26%

Question: What about the “purity (HPLC)” value ([1]; solution of Example 2-8 (165 nmol cysteine), pH 8.5, 2 hr) of the same molecule?
Answer: 79.83%

Question: What about the “purity (HPLC)” value ([1]; solution of Example 2-8 (165 nmol cysteine), pH 8.5, 4 hr) of the same molecule?
Answer: 51.77%

Question: And the “radiochemical purity (HPLC)” value ([1]; solution of Example 2-9 (82.5 nmol cysteine + 82.5 nmol VB1), pH 5.5, 0 hr)?
Answer: 100%

Question: And the “radiochemical purity (HPLC)” value ([1]; solution of Example 2-9 (82.5 nmol cysteine + 82.5 nmol VB1), pH 5.5, 2 hr)?
Answer: 92.72%

Question: What about the “radiochemical purity (HPLC)” value ([1]; solution of Example 2-9 (82.5 nmol cysteine + 82.5 nmol VB1), pH 5.5, 4 hr) of the same molecule?
Answer: 91.20%

Question: And the “radiochemical purity (HPLC)” value ([1]; solution of Example 2-9 (82.5 nmol cysteine + 82.5 nmol VB1), pH 7, 0 hr)?
Answer: 100%

Question: What about the “radiochemical purity (HPLC)” value ([1]; solution of Example 2-9 (82.5 nmol cysteine + 82.5 nmol VB1), pH 7, 2 hr) of the same molecule?
Answer: 98.63%

Question: And the “radiochemical purity (HPLC)” value ([1]; solution of Example 2-9 (82.5 nmol cysteine + 82.5 nmol VB1), pH 7, 4 hr)?
Answer: 98.18%

Question: And the “radiochemical purity (HPLC)” value ([1]; solution of Example 2-9 (82.5 nmol cysteine + 82.5 nmol VB1), pH 8.5, 0 hr)?
Answer: 100%

Question: And the “radiochemical purity (HPLC)” value ([1]; solution of Example 2-9 (82.5 nmol cysteine + 82.5 nmol VB1), pH 8.5, 2 hr)?
Answer: 83.08%

Question: And the “radiochemical purity (HPLC)” value ([1]; solution of Example 2-9 (82.5 nmol cysteine + 82.5 nmol VB1), pH 8.5, 4 hr)?
Answer: 80.97%

Question: And the “radiochemical purity (HPLC)” value ([1]; solution of Example 2-10 (82.5 nmol cysteine + 82.5 nmol VB6), pH 5.5, 0 hr)?
Answer: 97.24%

Question: What about the “radiochemical purity (HPLC)” value ([1]; solution of Example 2-10 (82.5 nmol cysteine + 82.5 nmol VB6), pH 5.5, 2 hr) of the same molecule?
Answer: 90.29%

Question: And the “radiochemical purity (HPLC)” value ([1]; solution of Example 2-10 (82.5 nmol cysteine + 82.5 nmol VB6), pH 5.5, 4 hr)?
Answer: 90.65%

Question: And the “radiochemical purity (HPLC)” value ([1]; solution of Example 2-10 (82.5 nmol cysteine + 82.5 nmol VB6), pH 7, 0 hr)?
Answer: 97.24%

Question: What about the “radiochemical purity (HPLC)” value ([1]; solution of Example 2-10 (82.5 nmol cysteine + 82.5 nmol VB6), pH 7, 2 hr) of the same molecule?
Answer: 95.61%

Question: What about the “radiochemical purity (HPLC)” value ([1]; solution of Example 2-10 (82.5 nmol cysteine + 82.5 nmol VB6), pH 7, 4 hr) of the same molecule?
Answer: 96.25%

Question: And the “radiochemical purity (HPLC)” value ([1]; solution of Example 2-10 (82.5 nmol cysteine + 82.5 nmol VB6), pH 8.5, 0 hr)?
Answer: 97.24%

Question: And the “radiochemical purity (HPLC)” value ([1]; solution of Example 2-10 (82.5 nmol cysteine + 82.5 nmol VB6), pH 8.5, 2 hr)?
Answer: 95.61%

Question: What about the “radiochemical purity (HPLC)” value ([1]; solution of Example 2-10 (82.5 nmol cysteine + 82.5 nmol VB6), pH 8.5, 4 hr) of the same molecule?
Answer: 91.19%

Question: And the “radiochemical purity (HPLC)” value ([1]; solution of Example 2-14 (82.5 nmol cysteine + 82.5 nmol VB6), pH 5.5, 0 hr)?
Answer: 100%

Question: And the “radiochemical purity (HPLC)” value ([1]; solution of Example 2-14 (82.5 nmol cysteine + 82.5 nmol VB6), pH 5.5, 2 hr)?
Answer: 97.24%

Question: And the “radiochemical purity (HPLC)” value ([1]; solution of Example 2-14 (82.5 nmol cysteine + 82.5 nmol VB6), pH 5.5, 4 hr)?
Answer: 95.61%

Question: What about the “radiochemical purity (HPLC)” value ([1]; solution of Example 2-14 (82.5 nmol cysteine + 82.5 nmol VB6), pH 7, 0 hr) of the same molecule?
Answer: 100%

Question: And the “radiochemical purity (HPLC)” value ([1]; solution of Example 2-14 (82.5 nmol cysteine + 82.5 nmol VB6), pH 7, 2 hr)?
Answer: 98.56%

Question: What about the “radiochemical purity (HPLC)” value ([1]; solution of Example 2-14 (82.5 nmol cysteine + 82.5 nmol VB6), pH 7, 4 hr) of the same molecule?
Answer: 98.2%

Question: What about the “radiochemical purity (HPLC)” value ([1]; solution of Example 2-14 (82.5 nmol cysteine + 82.5 nmol VB6), pH 8.5, 0 hr) of the same molecule?
Answer: 100%

Question: What about the “radiochemical purity (HPLC)” value ([1]; solution of Example 2-14 (82.5 nmol cysteine + 82.5 nmol VB6), pH 8.5, 2 hr) of the same molecule?
Answer: 92.21%

Question: What about the “radiochemical purity (HPLC)” value ([1]; solution of Example 2-14 (82.5 nmol cysteine + 82.5 nmol VB6), pH 8.5, 4 hr) of the same molecule?
Answer: 89.62%

Question: What about the “purity (HPLC)” value ([2]; addition of cysteine after reaction, pH 3, 3 hours) of the same molecule?
Answer: 42.46%

Question: And the “purity (HPLC)” value ([2]; addition of cysteine before reaction, pH 3, 0 hour)?
Answer: 95.6%

Question: What about the “purity (HPLC)” value ([2]; addition of cysteine before reaction, pH 7, 3 hours) of the same molecule?
Answer: 98.53%

Reference: patent publication US12527886B2, “Radiopharmaceuticals and composition for thrombus imaging” (THE ASAN FOUNDATION, priority 2020, dated 2026)
